Laboratory results as given in patent US9856242B2, “5-fluoro-N-(pyridin-2-yl)pyridin-2-amine derivatives containing a sulfone group” (Bayer Pharma Aktiengesellschaft, priority 2014, dated 2018).

Assays:
NCI-H460 cells = experiment: Proliferation assay (Method 3), NCI-H460; assay type: cell-based; conditions: NCI-H460, 96 h; human non-small cell lung carcinoma, 4 days, crystal violet; read-out: Inhibition of NCI-H460 cell proliferation IC50
Description: Cultivated tumour cells (HeLa, human cervical tumour cells, ATCC CCL-2; NCI-H460, human non-small cell lung carcinoma cells, ATCC HTB-177; A2780, human ovarian carcinoma cells, ECACC #93112519; DU 145, hormone-independent human prostate carcinoma cells, ATCC HTB-81; HeLa-MaTu-ADR, multidrug-resistant human cervical carcinoma cells, EPO-GmbH Berlin; Caco-2, human colorectal carcinoma cells, ATCC HTB-37; B16F10, mouse melanoma cells, ATCC CRL-6475) were plated at a density of 5,000 cells/well (DU145, HeLa-MaTu-ADR), 3,000 cells/well (NCI-H460, HeLa), 2,500 cells/well (A2780), 1,500 cells/well (Caco-2), or 1,000 cells/well (B16F10) in a 96-well multititer plate in 200 μL of their respective growth medium supplemented 10% fetal calf serum. After 24 hours, the cells of one plate (zero-point plate) were stained with crystal violet (see below), while the medium of the other plates was replaced by fresh culture medium (200 μl), to which the test substances were added in various concentrations (0 μM, as well as in the range of 0.001-10 μM; the final concentration of the solvent dimethyl sulfoxide was 0.5%). The cells were incubated for 4 days in the presence of test substances. Cell proliferation was determined by staining the cells with crystal violet: the cells were fixed by adding 20 μl/measuring point of an 11% glutaric aldehyde solution for 15 minutes at room temperature. After three washing cycles of the fixed cells with water, the plates were dried at room temperature. The cells were stained by adding 100 μl/measuring point of a 0.1% crystal violet solution (pH 3.0). After three washing cycles of the stained cells with water, the plates were dried at room temperature. The dye was dissolved by adding 100 μl/measuring point of a 10% acetic acid solution. The extinction was determined by photometry at a wavelength of 595 nm. The change of cell number, in percent, was calculated by normalization of the measured values to the extinction values of the zero-point plate (=0%) and the extinction of the untreated (0 μm) cells (=100%). The IC50 values (inhibitory concentration at 50% of maximal effect) were determined by means of a 4 parameter fit.

CDK9/CycT1 = biological target: T1, CDK9/CycT1 (Homo sapiens, UniProt P50750); experiment: CDK9/CycT1 high ATP kinase assay (Method 1b, TR-FRET, 2 mM ATP); assay type: biochemical; conditions: for IC50: Method 1b, 2 mM ATP; for Selectivity high ATP CDK9/high ATP CDK2: according to Methods 1b and 2b (ratio of high ATP CDK2 IC50 to high ATP CDK9 IC50)
T1 construct: Recombinant full-length His-tagged human CDK9 and CycT1; His; purchased Invitrogen PV4131; host or cells: insect cells
T1 sequence (P50750 whole entry): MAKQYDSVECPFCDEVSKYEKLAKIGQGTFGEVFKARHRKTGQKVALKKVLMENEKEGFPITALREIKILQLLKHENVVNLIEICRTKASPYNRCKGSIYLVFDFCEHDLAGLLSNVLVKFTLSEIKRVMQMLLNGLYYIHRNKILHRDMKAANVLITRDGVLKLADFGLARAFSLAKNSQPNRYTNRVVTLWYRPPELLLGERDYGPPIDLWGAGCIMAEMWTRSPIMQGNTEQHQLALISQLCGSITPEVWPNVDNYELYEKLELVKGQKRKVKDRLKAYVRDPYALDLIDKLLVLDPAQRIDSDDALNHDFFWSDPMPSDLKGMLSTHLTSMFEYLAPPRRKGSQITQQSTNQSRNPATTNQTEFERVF
T1 sequence (O60563 whole entry partner): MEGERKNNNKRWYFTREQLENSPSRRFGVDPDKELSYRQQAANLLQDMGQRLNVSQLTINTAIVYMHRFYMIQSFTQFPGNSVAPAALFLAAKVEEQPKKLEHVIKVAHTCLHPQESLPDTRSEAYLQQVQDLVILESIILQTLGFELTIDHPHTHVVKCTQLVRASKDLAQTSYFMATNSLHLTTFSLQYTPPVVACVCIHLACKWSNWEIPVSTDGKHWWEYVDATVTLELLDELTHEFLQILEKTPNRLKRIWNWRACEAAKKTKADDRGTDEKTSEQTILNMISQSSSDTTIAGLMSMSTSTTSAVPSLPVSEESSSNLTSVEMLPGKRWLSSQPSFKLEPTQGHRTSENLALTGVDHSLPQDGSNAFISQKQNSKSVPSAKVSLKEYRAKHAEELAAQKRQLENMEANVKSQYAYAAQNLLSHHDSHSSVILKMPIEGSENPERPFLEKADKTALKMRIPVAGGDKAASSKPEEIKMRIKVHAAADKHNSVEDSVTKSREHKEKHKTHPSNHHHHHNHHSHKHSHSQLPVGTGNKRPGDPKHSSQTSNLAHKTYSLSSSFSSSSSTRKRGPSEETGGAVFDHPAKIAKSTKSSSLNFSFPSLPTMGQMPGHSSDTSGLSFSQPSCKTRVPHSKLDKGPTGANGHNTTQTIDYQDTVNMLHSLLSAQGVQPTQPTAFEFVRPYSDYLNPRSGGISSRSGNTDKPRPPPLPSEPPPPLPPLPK
Description: 1b. CDK9/CycT1 High ATP Kinase Assay
CDK9/CycT1-inhibitory activity of compounds of the present invention at a high ATP concentration after preincubation of enzyme and test compounds was quantified employing the CDK9/CycT1 TR-FRET assay as described in the following paragraphs.
Recombinant full-length His-tagged human CDK9 and CycT1, expressed in insect cells and purified by Ni-NTA affinity chromatography, were purchase from Invitrogen (Cat. No PV4131). As substrate for the kinase reaction biotinylated peptide biotin-Ttds-YISPLKSPYKISEG (C-terminus in amid form) was used which can be purchased e.g. form the company JERINI peptide technologies (Berlin, Germany). For the assay 50 n1 of a 100 fold concentrated solution of the test compound in DMSO was pipetted into a black low volume 384 well microtiter plate (Greiner Bio-One, Frickenhausen, Germany), 2 μl of a solution of CDK9/CycT1 in aqueous assay buffer [50 mM Tris/HCl pH 8.0, 10 mM MgCl2, 1.0 mM dithiothreitol, 0.1 mM sodium ortho-vanadate, 0.01% (v/v) Nonidet-P40 (Sigma)] were added and the mixture was incubated for 15 min at 22° C. to allow pre-binding of the test compounds to the enzyme before the start of the kinase reaction. Then the kinase reaction was started by the addition of 3 μl of a solution of adenosine-tri-phosphate (ATP, 3.3 mM=>final conc. in the 5 μl assay volume is 2 mM) and substrate (1.67 μM=>final conc. in the 5 μl assay volume is 1 μM) in assay buffer and the resulting mixture was incubated for a reaction time of 25 min at 22° C. The concentration of CDK9/CycT1 was adjusted depending of the activity of the enzyme lot and was chosen appropriate to have the assay in the linear range, typical concentrations were in the range of 0.5 μg/mL. The reaction was stopped by the addition of 5 μl of a solution of TR-FRET detection reagents (0.2 μM streptavidine-XL665 [Cisbio Bioassays, Codolet, France] and 1 nM anti-RB(pSer807/pSer811)-antibody from BD Pharmingen [#558389] and 1.2 nM LANCE EU-W1024 labeled anti-mouse IgG antibody [Perkin-Elmer, product no. AD0077]) in an aqueous EDTA-solution (100 mM EDTA, 0.2% (w/v) bovine serum albumin in 100 mM HEPES/NaOH pH 7.0).
The resulting mixture was incubated 1 h at 22° C. to allow the formation of complex between the phosphorylated biotinylated peptide and the detection reagents. Subsequently the amount of phosphorylated substrate was evaluated by measurement of the resonance energy transfer from the Eu-chelate to the streptavidine-XL. Therefore, the fluorescence emissions at 620 nm and 665 nm after excitation at 350 nm was measured in a HTRF reader, e.g. a Rubystar (BMG Labtechnologies, Offenburg, Germany) or a Viewlux (Perkin-Elmer). The ratio of the emissions at 665 nm and at […] was taken as the measure for the amount of phosphorylated substrate. The data were normalised (enzyme reaction without inhibitor=0% inhibition, all other assay components but no enzyme=100% inhibition).

SMILES | IC50 (NCI-H460 cells) [µM] | IC50 (CDK9/CycT1) [µM] | Selectivity high ATP CDK9/high ATP CDK2 (CDK9/CycT1)
CS(=O)(=O)Cc1ccnc(Nc2cc(-c3ccc(F)c4ccoc34)c(F)cn2)c1 [Example 1, 5-Fluoro-4-(4-fluoro-1-benzofuran-7-yl)-N-{4-[(methylsulfonyl)methyl]pyridin-2-yl}pyridin-2-amine] | 0.037 | 0.002 | 268
CS(=O)(=O)Cc1cc(F)nc(Nc2cc(-c3ccc(F)c4ccoc34)c(F)cn2)c1 [Example 2, 5-Fluoro-4-(4-fluoro-1-benzofuran-7-yl)-N-{6-fluoro-4-[(methylsulfonyl)methyl]pyridin-2-yl}pyridin-2-amine] | 0.048 | 0.001 | 517
Cc1cc(CS(C)(=O)=O)cc(Nc2cc(-c3ccc(F)c4ccoc34)c(F)cn2)n1 [Example 3, 5-Fluoro-4-(4-fluoro-1-benzofuran-7-yl)-N-{6-methyl-4-[(methylsulfonyl)methyl]pyridin-2-yl}pyridin-2-amine] | 0.019 | 0.0009 | –

More lines, now with the values ahead:

IC50 (NCI-H460 cells) [µM] | IC50 (CDK9/CycT1) [µM] | Selectivity high ATP CDK9/high ATP CDK2 (CDK9/CycT1) | SMILES
0.033 | 0.004 | – | CS(=O)(=O)Cc1cc(Nc2cc(-c3ccc(F)c4ccoc34)c(F)cn2)nc(C(F)(F)F)c1 [Example 4, 5-Fluoro-4-(4-fluoro-1-benzofuran-7-yl)-N-{4-[(methylsulfonyl)methyl]-6-(trifluoromethyl)pyridin-2-yl}pyridin-2-amine]
0.091 | 0.002 | – | CS(=O)(=O)Cc1ccnc(Nc2cc(-c3cccc4ccoc34)c(F)cn2)c1 [Example 5, 4-(1-Benzofuran-7-yl)-5-fluoro-N-{4-[(methylsulfonyl)methyl]pyridin-2-yl}pyridin-2-amine]
